Where only a bound is given, the exact number is not on record here.

For one series, the system named is sodium channel. The series can be described thus: Guanidine influx assay (14C-guanidine radiotracer flux) in a known cell line that expresses a sodium channel. The series is classed as cell-based, human or rat. From the text:
This example describes an in vitro assay for testing and profiling test agents against human or rat sodium channels stably expressed in cells of either an endogenous or recombinant origin.
The guanidine influx assay is a radiotracer flux assay used to determine ion flux activity of sodium channels in a high-throughput microplate-based format. The assay uses ^14C-guanidine hydrochloride in combination with various known sodium channel modulators, to assay the potency of test agents. Potency is determined by an IC50 calculation. Selectivity is determined by comparing potency of the compound for the channel of interest to its potency against other sodium channels (also called ‘selectivity profiling’).
Each of the test agents is assayed against cells that express the sodium channel of interest. Voltage gated sodium channels are either TTX sensitive or insensitive. This property is useful when evaluating the activities of a channel of interest when it resides in a mixed population with other sodium channels. The following Table 1 lists certain cell lines which are useful in screening for a certain sodium channel activity in the presence or absence of TTX.
It is also possible to employ recombinant cells expressing these sodium channels.
Cells expressing the channel of interest are grown according to the supplier or in the case of a recombinant cell in the presence of selective growth media such as G418 (Gibco/Invitrogen). The cells are disassociated from the culture dishes with an enzymatic solution (1×) Trypsin/EDTA (Gibco/Invitrogen) and analyzed for density and viability using haemocytometer (Neubauer). Disassociated cells are washed and resuspended in their culture media then plated into Scintiplates (Beckman Coulter Inc.) (approximately 100,000 cells/well) and incubated at 37° C./5% CO2 for 20-24 hours. After an extensive wash with Low sodium HEPES-buffered saline solution (LNHBSS) (150 mM Choline Chloride, […] (Sigma), 1 mM Calcium Chloride, 5 mM Potassium Chloride, 1 mM Magnesium Chloride, 10 mM Glucose) agents diluted with LNHBSS are added to each well. (Varying concentrations of test agent may be used). The activation/radiolabel mixture contains aconitine (Sigma), and ^14C-guanidine hydrochloride (ARC).
After loading the cells with test agent and activation/radiolabel mixture, the Scintiplates are incubated at ambient temperature. Following the incubation, the Scintplates are extensively washed with LNHBSS supplemented with guanidine (Sigma). The Scintiplates are dried and then counted using a Wallac MicroBeta TriLux (Perkin-Elmer Life Sciences). The ability of the test agent to block sodium channel activity is determined by comparing the amount of ^14C-guanidine present inside the cells expressing the different sodium channels.
IC50 value of a test agent for a specific sodium channel may be determined using the above general method. […] The IC50 curve is calculated using the 4 Parameter Logistic Model or Sigmoidal Dose-Response Model formula (fit=(A+((B−A)/(1+((C/x)^D)))).
The fold selectivity, factor of selectivity or multiple of selectivity, is calculated by dividing the IC50 value of the test sodium channel by the reference sodium channel, for example, Nav1.5.
The Example numbers provided in Table 2 correspond to the Example numbers herein: […]
On to `O=C(O)CN1C(=O)C2(COc3cc4c(cc32)OCO4)c2ccccc21` (stereo not drawn) [Example 2, (2′-oxospiro[furo[2,3-f][1,3]benzodioxole-7,3′-indol]-1′(2′H)-yl)acetic acid], for which the IC50 was greater than 1000 nM.

On to `O=C(CN1C(=O)C2(COc3cc4c(cc32)OCO4)c2ccccc21)NCc1ccc(Cl)cc1` (stereo not drawn) [Example 3, N-(4-chlorobenzyl)-2-(2′-oxospiro[furo[2,3-f][1,3]benzodioxole-7,3′-indol]-1′(2′H)-yl)acetamide], for which the IC50 was in the range of 100 to 1000 nM.

Turning to `CCCCCN1C(=O)C2(COc3cc4c(cc32)OCO4)c2c(-c3ccc(N(C)C)nc3)cccc21` (stereo not drawn) [Example 4, 4′-[6-(dimethylamino)pyridin-3-yl]-1′-pentylspiro[furo[2,3-f][1,3]benzodioxole-7,3′-indol]-2′(1′H)one], the IC50 lay within 100 to 1000 nM.

`CCCCCN1C(=O)C2(COc3cc4c(cc32)OCO4)c2c(Nc3ccc(OC)nc3)cccc21` (stereo not drawn) [Example 5, 4′-[(6-methoxypyridin-3-yl)amino]-1′-pentylspiro[furo[2,3-f][1,3]benzodioxole-7,3′-indol]-2′(1′H)-one]: the IC50 fell in the range of 100 to 1000 nM.

Regarding `O=C(O)c1ccccc1CN1C(=O)C2(COc3cc4c(cc32)OCO4)c2ccccc21` (stereo not drawn) [Example 6, 2-[(2′-oxospiro[furo[2,3-f][1,3]benzodioxole-7,3′-indol]-1′(2′H)-yl)methyl]benzoic acid], the IC50 was greater than 1000 nM.

As for `O=C(NCCc1ccc(Cl)cc1)c1ccccc1CN1C(=O)C2(COc3cc4c(cc32)OCO4)c2ccccc21` (stereo not drawn) [Example 7, N-[2-(4-chlorophenyl)ethyl]-2-[(2′-oxospiro[furo[2,3-f][1,3]benzodioxole-7,3′-indol]-1′(2′H)-yl)methyl]benzamide], the IC50 is 100 to 1000 nM.

For the molecule `O=C(O)c1cccc(CN2C(=O)C3(COc4cc5c(cc43)OCO5)c3ccccc32)c1` (stereo not drawn) [Example 8, 3-[(2′-oxospiro[furo[2,3-f][1,3]benzodioxole-7,3′-indol]-1′(2′H)-yl)methyl]benzoic acid], the IC50 lay in the range of 100 to 1000 nM.

Regarding `O=C(NCCc1cccc(Cl)c1)c1cccc(CN2C(=O)C3(COc4cc5c(cc43)OCO5)c3ccccc32)c1` (stereo not drawn) [Example 9, N-[2-(3-chlorophenyl)ethyl]-3-[(2′-oxospiro[furo[2,3-f][1,3]benzodioxole-7,3′-indol]-1′(2′H)-yl)methyl]benzamide], the IC50 was 100 to 1000 nM.

As for `O=C1N(Cc2ccc(F)cc2)c2ccccc2C12COc1cc3c(cc12)OCO3` (stereo not drawn) [Example 10, 1′-(4-fluorobenzyl)spiro[furo[2,3-f][1,3]benzodioxole-7,3′-indol]-2′(1′H)-one], the IC50 was in the range of 10 to 100 nM.

On to `O=C(O)c1ccc(CN2C(=O)C3(COc4cc5c(cc43)OCO5)c3ccccc32)cc1` (stereo not drawn) [Example 11, 4-[(2′-oxospiro[furo[2,3-f][1,3]benzodioxole-7,3′-indol]-1′(2′H)-yl)methyl]benzoic acid], for which the IC50 is greater than 1000 nM.

As for `O=C(Nc1cccc(F)c1)c1ccc(CN2C(=O)C3(COc4cc5c(cc43)OCO5)c3ccccc32)cc1` (stereo not drawn) [Example 12, N-(3-fluorophenyl)-4-[(2′-oxospiro[furo[2,3-f][1,3]benzodioxole-7,3′-indol]-1′(2′H)-yl)methyl]benzamide], the IC50 is 100 to 1000 nM.

`O=C1N(CCCO)c2ccccc2C12COc1cc3c(cc12)OCO3` (stereo not drawn) [Example 13, 1′-(3-hydroxypropyl)spiro[furo[2,3-f][1,3]benzodioxole-7,3′-indol]-2′(1′H)-one]: the IC50 was in the range of 10 to 100 nM.

Take `O=C1N(CCCNCC2CC2)c2ccccc2C12COc1cc3c(cc12)OCO3` (stereo not drawn) [Example 15, 1′-{3-[(cyclopropylmethyl)amino]propyl}spiro[furo[2,3-f][1,3]benzodioxole-7,3′-indol]-2′(1′H)-one]: the IC50 was greater than 1000 nM.

For the molecule `NCCCN1C(=O)C2(COc3cc4c(cc32)OCO4)c2ccccc21` (stereo not drawn) [Example 16, 1′-(3-aminopropyl)spiro[furo[2,3-f][1,3]benzodioxole-7,3′-indol]-2′(1′H)-one], the IC50 was greater than 1000 nM.

In the case of `O=C(NCCCN1C(=O)C2(COc3cc4c(cc32)OCO4)c2ccccc21)c1sccc1Cl` (stereo not drawn) [Example 17, 3-chloro-N-[3-(2′-oxospiro[furo[2,3-f][1,3]benzodioxole-7,3′-indol]-1′(2′H)-yl)propyl]thiophene-2-carboxamide], the IC50 is 10 to 100 nM.

Regarding `NCCN1C(=O)C2(COc3cc4c(cc32)OCO4)c2ccccc21` (stereo not drawn) [Example 18, 1′-(2-aminoethyl)spiro[furo[2,3-f][1,3]benzodioxole-7,3′-indol]-2′(1′H)-one], the IC50 was greater than 1000 nM.

Regarding `O=C(NCCN1C(=O)C2(COc3cc4c(cc32)OCO4)c2ccccc21)Nc1ccc(F)cc1` (stereo not drawn) [Example 19, 1-(4-fluorophenyl)-3-[2-(2′-oxospiro[furo[2,3-f][1,3]benzodioxole-7,3′-indol]-1′(2′H)-yl)ethyl]urea], the IC50 was greater than 1000 nM.

Consider `CCCCCN1C(=O)C2(CC(=O)c3cc4c(cc32)OCO4)c2ccccc21` (stereo not drawn) [Example 21, 1′-pentylspiro[indeno[5,6-d][1,3]dioxole-5,3′-indole]-2′,7(1′H,6H)-dione], for which the IC50 fell in the range of 1 to 10 nM.

Turning to `CCCCCN1C(=O)C2(CCC(=O)c3cc4c(cc32)OCO4)c2ccccc21` (stereo not drawn) [Example 22, 1-pentyl-6′H-spiro[indole-3,5′-naphtho[2,3-d][1,3]dioxole]-2,8′(1′H,7′H)-dione], the IC50 lay in the range of 1 to 10 nM.

With `CCCCCN1C(=O)C2(CCc3cc4c(cc32)OCO4)c2ccccc21` (stereo not drawn) [Example 23, 1′-pentyl-6,7-dihydrospiro[indeno[5,6-d][1,3]dioxole-5,3′-indol]-2′(1′H)-one], the IC50 lay within 100 to 1000 nM.

In the case of `CCCCCN1C(=O)C2(CCCc3cc4c(cc32)OCO4)c2ccccc21` (stereo not drawn) [Example 24, 1-pentyl-7′,8′-dihydro-6′H-spiro[indole-3,5′-naphtho[2,3-d][1,3]dioxol]-2(1H)-one], the IC50 lay within 1 to 10 nM.

In the case of `CCCCCN1C(=O)C2(CC(O)c3cc4c(cc32)OCO4)c2ccccc21` (stereo not drawn) [Example 26, 7-hydroxy-1′-pentyl-6,7-dihydrospiro[indeno[5,6-d][1,3]dioxole-5,3′-indol]-2′(1′H)-one], the IC50 was greater than 1000 nM.

System in a further series: not given
Assay: not given
In the case of `O=C1N(Cc2ccc(C(F)(F)F)o2)c2ccccc2C12COc1cc(OC(F)(F)F)ccc12` (stereo not drawn) [Example 10.90, 6-(trifluoromethoxy)-1′-{[5-(trifluoromethyl)-2-furyl]methyl}spiro[1-benzofuran-3,3′-indol]-2′(1′H)-one], the melting point lay within 78 to 80 °C.

The molecule `COc1ccc(CN2C(=O)C3(COc4cc(OC(F)(F)F)ccc43)c3ccccc32)cc1` (stereo not drawn) [Example 10.91, 1′-(4-methoxybenzyl)-6-(trifluoromethoxy)spiro[1-benzofuran-3,3′-indol]-2′(1′H)-one] showed a melting point of 82 to 84 °C.

For the molecule `O=C1N(CC2CCCCC2)c2ccccc2C12COc1cc3c(cc12)OCO3` (stereo not drawn) [Example 10.92, 1′-(cyclohexylmethyl)spiro[furo[2,3-f][1,3]benzodioxole-7,3′-indol]-2′(1′H)-one], the melting point lay in the range of 153 to 154 °C.

In turn, `CS(=O)(=O)N1C(=O)C2(COc3cc4c(cc32)OCO4)c2ccccc21` (stereo not drawn) [Example 10.93, 1′-(methylsulfonyl)spiro[furo[2,3-f][1,3]benzodioxole-7,3′-indol]-2′(1′H)-one] had a melting point of 215 to 217 °C.

For `CC(C)(C)OC(=O)N1CCC(CCN2C(=O)C3(COc4cc5c(cc43)OCO5)c3ccccc32)CC1` (stereo not drawn) [Example 10.96, tert-butyl 4-[2-(2′-oxospiro[furo[2,3-f][1,3]benzodioxole-7,3′-indol]-1′(2′H)-yl)ethyl]piperidine-1-carboxylate], the melting point was in the range of 173 to 175 °C.

Consider `CCCCCN1C(=O)C2(COc3cc4c(cc32)OCO4)c2c(C(=O)Nc3cccc(OC)c3)cccc21` (stereo not drawn) [Example 29.1, N-(3-methoxyphenyl)-2′-oxo-1′-pentyl-1′,2′-dihydrospiro[furo[2,3-f][1,3]benzodioxole-7,3′-indole]-4′-carboxamide], for which the melting point lay in the range of 173 to 175 °C.

`O=C1N(Cc2nc3cc(F)ccc3[nH]2)c2ccccc2C12COc1cc3c(cc12)OCO3` (stereo not drawn) [Example 53, 1′-[(5-fluoro-1H-benzimidazol-2-yl)methyl]spiro[furo[2,3-f][1,3]benzodioxole-7,3′-indol]-2′(1′H)-one] had a melting point of 138 to 142 °C.

As to `COc1ccc2c(c1)C1(CO2)C(=O)N(C)c2ccccc21` (stereo not drawn) [Example 58, 5-methoxy-1′-methylspiro[1-benzofuran-3,3′-indol]-2′(1′H)one], the melting point was in the range of 159 to 161 °C.

These data come from patent publication US8466188B2, “Use of spiro-oxindole compounds as therapeutic agents” (Xenon Pharmaceuticals Inc., priority 2006, dated 2013).
